Source: patent US8895518B2, “Cooperative conveyance of basic active principles by amphiphilic acid molecules” (Centre National de la Recherche Scientifique, priority 2009, dated 2014)
Where a name gives a salt, the structure may show the parent alone.

Tests used:
Type in all cases: physicochemical
[1] = Photostability under natural light, visual observations; conditions: 4×10^−2 M solution, 25° C. water bath
Description: (§1) To carry out this study, the various solutions (4×10^−2 M) are placed in a 25° C. water bath under natural light for several weeks. This gentler mode of irradiation was preferred over the use of a Xenon lamp which degrades the active principle too rapidly and makes it impossible to establish a comparison.

[2] = Photodegradation monitored by UV / visible spectrophotometry; conditions: after two months under natural exposure; for λmax (nm): visible range
Description: The study of the photophysical properties of promethazine hydrochloride and the association Lac6P on the one hand, and mequitazine hydrochloride and the association Lac6M on the other, was thus undertaken by UV spectrophotometry.
This study was carried out on a Hewlett-Packard 8452A diode array spectrophotometer operating at wavelengths between 190 nm and 820 nm.
The solutions were analyzed in quartz cells at concentrations of 4×10 ^−2 M and 6.6×10^−5 M.
as §1
However, in order to better understand this phenomenon, photodegradation of the hydrochlorides and the associations Lac6P and Lac6M was monitored by visible spectrophotometry. This analysis technique is particularly suited to the study of this phenomenon because it takes color variations into account.
After two months under natural exposure, the appearance of a band for promethazine and mequitazine hydrochlorides, as well as for the catanionic association Lac6P, confirms the color changes observed. It is important to note that in visible spectrophotometry, perceived color is always complementary to absorbed radiation. For example, mequitazine hydrochloride absorbs in the green spectrum (λ=512 nm) and appears pink-purple.

[3] = Photodegradation quantified by HPLC (undegraded active principle in solution); conditions: after five days under natural light, 4×10^−2 M
Description: Promethazine photodegradation was monitored by HPLC on a Waters 2695 chromatograph equipped with Millipore 510 pumps and an XBridge RP18 column (2.1×100 nm, 3.5 μm). Promethazine is detected by UV-visible spectrophotometry, at a wavelength of 251 nm, with a Waters 2487 Dual λ Absorbance Detector. The mobile phase is composed of a 22/78 mixture of 0.1% formic acid in water and acetonitrile. Elution is carried out in isocratic mode with a flow rate of 0.35 ml/min^−1. The volumes injected are 10 μl. All the samples were injected three times.
A calibration curve is prepared beforehand with promethazine hydrochloride over a range of concentrations between 10^5 M and 5×10^−2 M.
In order to refine the results obtained, degradation of promethazine hydrochloride and the catanionic association Lac6P was quantified by high-performance liquid chromatography (HPLC). Degradation is monitored by assaying the quantity of undegraded active principle present in solution (FIG. 2).

| SMILES | colour change of the solution (visual observation) [1] | Color observed [2] | λmax (nm) [2] [nm] | appearance of an insoluble product (visual observation) [1] | degradation rate [3] [%] |
| --- | --- | --- | --- | --- | --- |
| c1ccc2c(c1)Sc1ccccc1N2CC1CN2CCC1CC2 (centres unmarked) [Mequitazine hydrochloride, mequitazine hydrochloride] | turns pink after ten days of exposure, and then changes no further | pink-purple | 512 | – | – |
| CC(CN1c2ccccc2Sc2ccccc21)N(C)C (centres unmarked) [Promethazine hydrochloride, promethazine hydrochloride] | turns pink after 24 hours of exposure and changes to blue-violet after a few days | violet-indigo | 538 | an insoluble compound appears after about two weeks under natural light | 13 |
